Measurements taken from patent EP0307553B1, “Modified splenopentines, their process of preparation and their use” (priority 1987, dated 1989).
“Also recorded” adds a separate entry of the source. Where two headings read alike, the source gives them in different places.

Experiments:
NMRI-Mäuse = type: in vivo; details: i. p., without DAc-SP5
Excerpt: Der Einfluß von DAc-SP5 und immunsuppressiv wirkenden Verbindungen auf die Antigen-spezifische IgM-Antwort bei Mäusen wurde untersucht. Die erhaltenen Ergebnisse sind in den Fig.1 und 2 dargestellt.
DAc-SP5 rekonstituiert bereits durch wenige aufeinanderfolgende Applikationen die chemisch induzierts Suppression der humoralen Immunantwort.

[1] = test system: T4-Antigenen auf der Oberfläche menschlicher Lymphocyten; assay: Increase of T4 antigens on the surface of human lymphocytes of SLE patients in vitro (monoclonal antibodies); type: cell-based, Mensch
Excerpt: (§1) N^ε-MAc-SP5 (Sequenz 32 bis 36 des Milzhormons Splenin) hat die gleichen bzw. ähnliche immunbiologische Wirkungen wie das Gesamtmolekül Splenin. […] Funktionstüchtige T-Helferlymphocyten stimulieren die Antikörperbildung. Zum Nachweis einer Erhöhung der Antikörper-Bildung durch N^ε-MAc-SP5 wurde ein relevantes tierexperimentelles Modell gewählt: AB/Bln.-Mäuse wurden mit Röntgenstrahlen subletal bestrahlt und danach mit bzw. ohne N^ε-MAc-SP5 therapiert. Gleichzeitig erfolgte die Immunisierung der Tiere mit Schafserythrocyten. Da subletal bestrahlte Tiere die Fähigkeit verlieren, quantitativ ausreichend Antikörper zu produzieren, ist eine vermehrte Bildung von Antikörpern gegen Schafserythrocyten bei den mit N^ε-MAc-SP5 behandelten Tieren ein Maß für die Regeneration des Immunsystems durch N^ε-MAc-SP5. Mit N^ε-MAc-SP5 behandelte Tiere konnten bereits nach 34 Tagen Antikörper in gleicher Menge wie unbestrahlte Kontrolltiere bilden. Im Vergleich dazu waren nicht mit N^ε-MAc-SP5 behandelte Tiere dazu erst 48 Tage nach der einmaligen Röntgenbestrahlung befähigt.
Funktionstüchtige (reife) T-Helferlymphocyten besitzen auf ihrer Oberfläche T4-Antigene, T-Suppressorlymphocyten T8-Antigene. Bei Patienten mit Systemischem Lupus Erythematodes (SLE) wurde mittels monoklonaler Antikörper ein verminderter Gehalt von T4-Antigenen auf der Lymphocytenoberfläche bestimmt. […]

[2] = test system: Lymphocyten der SLE-Patienten; assay: 3H-thymidine incorporation of lymphocytes of SLE patients; type: cell-based, Mensch; details: after contact with N^ε-MAc-SP5; n = 5; no significant deviation from no contact (t-test)
Excerpt: T4-Antigene nehmen zu, wenn sich T4-Zellen vermehren bzw., wenn die Antigene vermehrt auf ihrer Oberfläche exprimiert werden. Die Untersuchungen ergaben, daß die Lymphocyten der SLE-Patienten nach Kontakt mit N^ε-MAc-SP5 keine erhöhten ³H-Thymidineinbauraten aufwiesen (910 ± 180 Impulse je Minute ohne N^ε-MAc-SP-5-Kontakt/820 ± 210 Impulse je Minute nach Kontakt mit N^ε-MAc-SP5; n = 5, keine signifikante Abweichung im t-Test). Es ist daher anzunehmen, daß die Zunahme der T4-Antigene nicht durch eine Vermehrung von T4-Zellen zustandekommt, sondern Folge einer strukturellen Veränderung der T-Zelloberfläche, möglicherweise identisch mit einem "Reifeprozeß" der Zelle, ist.

AB/Bln.-Mäuse = assay: Antibody formation against sheep erythrocytes (Jerne plaque test) after sublethal X-ray irradiation; type: in vivo; details: 600 c Gy; 10 or 50 µg i.p. every second day; untreated irradiated animals 48 days
Excerpt: as §1, with “befähigt. […]” for “befähigt.”

männlichen Balb/c-Mäusen = details: in vivo

Molecule: O=P1(N(CCCl)CCCl)NCCCO1 (centres unmarked) [Cyclophosphamid]
- Antigen-spezifischen IgM-Antwort (NMRI-Mäuse; single dose 7,2 mg/Tier): nahezu vollständige Suppression

Molecule: Arginyl(N^ε-acetyl-lysyl)glutamylvalyl)tyrpsin [N^ε-MAc-SP5]
- TB-Antigene (Oberflächenantigene auf T-Suppressorlymphocyten bzw. cytotoxischen T-Lymphocyten) ([1]; lymphocytes of SLE patients after contact with N^ε-MAc-SP5): veränderten sich dagegen quantitativ nicht
- Anzahl von T4-Antigenen ([1]; lymphocytes of SLE patients before therapy, 2 h incubation with N^ε-MAc-SP5): quantitative Zunahme von T4-Antigenen; also recorded: permanent erhöhte Anzahl von T4-Antigenen
- ³H-Thymidineinbauraten [2]: 820 ± 210 Impulse je Minute
- time after X-ray irradiation until Antikörper in gleicher Menge wie unbestrahlte Kontrolltiere (AB/Bln.-Mäuse): 34 Tage

Molecule: CCO [Ethanol]
- % phagocytierende Peritonealzellen (männlichen Balb/c-Mäusen): 29,0±1,7%
- Milzmasse (mg) (männlichen Balb/c-Mäusen): 60,0±3,2 mg
- Phagocytoseindex (männlichen Balb/c-Mäusen): 3,0±0,08
- Plaque-bildende Zellen der Milz pro 10⁶ Zellen (Jerne-Plaquetest) (männlichen Balb/c-Mäusen): 61,3±3,8 pro 10⁶ Zellen
- Thymusmasse (mg) (männlichen Balb/c-Mäusen): 15,0±2,6 mg

Molecule: C[C@@H]1C[C@H]2[C@@H]3CCC4=CC(=O)C=C[C@]4(C)[C@@]3(F)[C@@H](O)C[C@]2(C)[C@@]1(O)C(=O)CO [Dexamethason]
- Antigen-spezifischen IgM-Antwort (NMRI-Mäuse; 0,2 mg/Tier or 0,08 mg/Tier): Reduktion
